≈ marks a conversion by molar mass, not a printed value. Where a name gives a salt, the structure may show the parent alone. Read-outs that look alike come from different tables or passages of the source.
What was measured:
HIV [1] = experiment: microbe, parasite or virus in culture; type: cell-based; details: for S.I. (selective index, CC50 /EC50): CC50 = 50% growth inhibition of non-infected cells, 7200 min; for EC50: Human immunodeficiency virus 1, MT4, 120 h, 50% CPE inhibition in HIV infected MT-4 cells, 5 days, 37° C.
Text: Exponentially growing MT-4 cells were centrifuged, and the pellets were resuspended in RPMI-1640 medium containing 10% fetal serum (serum medium). Portions of the cell suspension were either inoculated with HIV, or left uninfected. Serum medium was then further added to the suspensions, which were then washed and centrifuged. The resulting pellets were then suspended in serum medium to a concentration of 4×10^5 cells/mi. Preparations of the test compound (in serum medium) were […] in a stepwise manner, and 100 μl of each of the solutions were placed in separated wells of a 96-well plastic microtitre plate. 100 μl of each of the cell suspensions (infected and non-infected) were then added to the wells, so that each dilution of each of the test compounds was tested against both infected and noninfected cells. Blanks (not added either of the cells) were also prepared. The preparations were then cultured by standing the plate at 37° C. for 5 days in the presence of 5 % carbon dioxide gas.
At the end of this time, living cells were assayed for CPE inhibitory activity by the spectrophotometric assay of the blue formazan produced by the reduction of MTT [3-(4,5-dimethylthiazol-2-yl) -2,5-diphenyl-tetrazolium bromide]which was added to the preparations.
CPE inhibitory activity was defined as 100% in non-infected cells to which no test compounds had been added, while CPE inhibitory activity was defined as 0% in infected cells to which test compounds had not been added.

HIV [2] = details: literature / WO-A-90-13542; cited from earlier work

Row | Structure (SMILES) | EC50 (HIV [1]) [µg/mL] | S.I. (selective index, CC50 /EC50) (HIV [1]) | anti-HIV activity (in words) (HIV [1]; Pauwel method) | anti-HIV activity (reported) (HIV [2]) | anti-HIV activity (in words) (HIV [1])
1 | CCn1cc(C(=O)O)c(=O)c2cc(F)c(N3CCN(c4ncccn4)C(C)C3)c(OC(F)F)c21 (stereo not drawn) [Example 94, 1-ethyl-6-fluoro-8-difluoromethoxy-7-[3-methyl-4-(2-pyrimidinyl)piperazin-1-yl]-1,4-dihydro-4-oxoquinoline-3-carboxylic acid] | 0.5 (≈ 1.05 µM) | 21 |  |  | 
2 | CCn1cc(C(=O)O)c(=O)c2cc(F)c(N3CCNC(C)C3)c(F)c21 (stereo not drawn) [Lomefloxacin, reference compound] |  |  | little or no anti-HIV activity | anti-HIV activity | 
3 | O=C(O)c1cn(C2CC2)c2cc(N3CCNCC3)c(F)cc2c1=O [Ciprofloxacin, reference compound] |  |  |  | anti-HIV activity | little or no anti-HIV activity
4 | CCn1cc(C(=O)O)c(=O)c2cc(F)c(N3CCN(c4cnccn4)CC3)c(OC(F)F)c21 [Example 37] | 0.23 (≈ 0.496 µM) | > 109 |  |  | 
5 | CCn1cc(C(=O)O)c(=O)c2ccc(N3CCN(c4ncccn4)CC3)c(OC(F)F)c21 [Example 99, 1-ethyl-8-difluoromethoxy-7-[4-(2-pyrimidinyl)piperazin-1-yl]-1,4-dihydro-4-oxoquinoline-3-carboxylic acid] | 1 (≈ 2.25 µM) | > 25 |  |  | 
6 | COc1ccccc1N1CCN(c2c(F)cc3c(=O)c(C(=O)O)cn(CCF)c3c2OC)CC1 [Example 70] | 0.5 (≈ 1.06 µM) | 20 |  |  | 
7 | CCn1cc(C(=O)O)c(=O)c2cc(F)c(N3CCNCC3)nc21 [Enoxacin, reference compound] |  |  | little or no anti-HIV activity | anti-HIV activity | 
8 | CN1CCN(c2cc3c(cc2F)c(=O)c(C(=O)O)cn3-c2ccc(F)cc2)CC1 [Difloxacin, reference compound] |  |  | little or no anti-HIV activity | anti-HIV activity | 
9 | COc1ccccc1N1CCN(c2c(F)c(N)c3c(=O)c(C(=O)O)cn(C(C)C)c3c2OC(F)F)CC1 [Example 29] | 0.05 (≈ 0.0961 µM) | 22 |  |  | 
10 | CCn1cc(C(=O)O)c(=O)c2cc(F)c(N3CCNCC3)cc21 [Norfloxacin, reference compound] |  |  | little or no anti-HIV activity | anti-HIV activity | 
11 | CC1COc2c(N3CCN(c4ccccn4)CC3)c(F)cc3c(=O)c(C(=O)O)cn1c23 (stereo not drawn) [Example 85] | 1 (≈ 2.36 µM) | 17 |  |  | 
12 | NC1CCN(c2nc3c(cc2F)c(=O)c(C(=O)O)cn3-c2ccc(F)cc2F)C1 (stereo not drawn) [Tosufloxacin, reference compound] |  |  | little or no anti-HIV activity | anti-HIV activity | 
13 | CCn1cc(C(=O)O)c(=O)c2cc(F)c(N3CCN(c4ncccn4)CC3)c(OC(F)F)c21 [Example 67, 1-ethyl-6-fluoro-8-difluoromethoxy-7-[4-(2-pyrimidinyl)piperazin-1-yl]-1,4-dihydro-4-oxoquinoline-3-carboxylic acid] | 0.08 (≈ 0.173 µM) | > 500 |  |  | 
14 | CC1Sc2c(C(=O)O)c(=O)c3cc(F)c(N4CCN(c5ncccn5)CC4)cc3n21 (stereo not drawn) [Example 100, 6-fluoro-1-methyl-4-oxo-7-[4-(2-pyrimidinyl)piperazin-1-yl]-1H, 4H-[1,3]thiazeto[3,2-a]quinoline-3-carboxylic acid] | 0.4 (≈ 0.936 µM) | 9 |  |  | 
15 | COc1ccccc1N1CCN(c2c(F)cc3c(=O)c(C(=O)O)cn(CCF)c3c2OC(F)F)CC1 [Example 38] | 0.07 (≈ 0.137 µM) | 79 |  |  | 
16 | CNn1cc(C(=O)O)c(=O)c2cc(F)c(N3CCN(c4ncccn4)CC3)c(OC(F)F)c21 [Example 53] | 0.3 (≈ 0.646 µM) | > 83 |  |  | 
17 | CCn1cc(C(=O)O)c(=O)c2cc(F)c(N3CCN(c4ncccn4)CC3)nc21 [Example 92] | 0.8 (≈ 2.01 µM) | 31 |  |  | 
18 | Cn1cc(C(=O)O)c(=O)c2cc(F)c(N3CCN(c4ncccn4)CC3)c(OC(F)F)c21 [Example 24, 6-fluoro-8-difluoromethoxy-1-methyl-7-[4-(2-pyrimidinyl)piperazin-1-yl]-1,4-dihydro-4-oxoquinoline-3-carboxylic acid] | 0.07 (≈ 0.156 µM) | 257 |  |  | 
19 | COc1ccccc1N1CCN(c2c(F)cc3c(=O)c(C(=O)O)cn(CCOC(C)=O)c3c2OC(F)F)CC1 [Example 46, 1-(2-acetoxyethyl)-6-fluoro-8-difluoromethoxy-7-[4-(2-methoxyphenyl)piperazin-1-yl]-1,4-dihydro-4-oxoquinoline-3-carboxylic acid] | 0.06 (≈ 0.109 µM) | 155 |  |  | 
20 | O=C(O)c1cn2c3c(c(N4CCN(c5ncccn5)CC4)c(F)cc3c1=O)OCC2CF (stereo not drawn) [Example 87, 9-fluoro-3-fluoromethyl-10-[4-(2-pyrimidinyl)piperazin-1yl]-2,3-dihydro-7-oxo-7H -pyrido[1,2,3-de][1,4]benzoxazine-6-carboxylic acid] | 0.074 (≈ 0.167 µM) | > 512 |  |  | 
21 | CC(C)(C)n1cc(C(=O)O)c(=O)c2cc(F)c(N3CCN(c4ncccn4)CC3)cc21 [Example 95] | 0.4 (≈ 0.94 µM) | > 62 |  |  | 
22 | C[C@H]1COc2c(N3CCN(C)CC3)c(F)cc3c(=O)c(C(=O)O)cn1c23 [DR-3355, reference compound] |  |  | have failed | Anti-HIV activity has recently been reported | 

Further lines, with some results ahead:

Row | EC50 (HIV [1]) [µg/mL] | Structure (SMILES) | S.I. (selective index, CC50 /EC50) (HIV [1]) | anti-HIV activity (in words) (HIV [1]; Pauwel method) | anti-HIV activity (reported) (HIV [2]) | anti-HIV activity (in words) (HIV [1])
23 | 0.02 (≈ 0.0407 µM) | O=C(O)c1cn(C2CC2)c2c(OC(F)F)c(N3CCN(c4ccc(F)cc4)CC3)c(F)cc2c1=O [Example 6] | 34 |  |  | 
24 | 0.07 (≈ 0.137 µM) | O=C(O)c1cn(C2CC2)c2c(OC(F)F)c(N3CCN(c4ncc(Cl)cn4)CC3)c(F)cc2c1=O [Example 19] | 57 |  |  | 
25 | 0.021 (≈ 0.044 µM) | COc1ccccc1N1CCN(c2c(F)cc3c(=O)c(C(=O)O)cn(C)c3c2OC(F)F)CC1 [Example 23, 6-fluoro-8-difluoromethoxy-1-methyl-7-[4-(2-methoxyphenyl)piperazin-1-yl]-1,4-dihydro-4-oxoquinoline-3-carboxylic acid] | 309 |  |  | 
26 | 0.22 (≈ 0.437 µM) | COc1cccc(N2CCN(c3c(F)cc4c(=O)c(C(=O)O)cn(C5CC5)c4c3OC(F)F)CC2)c1 [Example 7] | 113 |  |  | 
27 | 0.037 (≈ 0.0719 µM) | O=C(O)c1cn(C2CC2)c2c(OC(F)F)c(N3CCN(c4nc5ccccc5o4)CC3)c(F)cc2c1=O [Example 21] | 16 |  |  | 
28 | 0.5 (≈ 0.963 µM) | O=C(O)c1cn(C2CC2)c2c(OC(F)F)c(N3CCN(c4ncccc4[N+](=O)[O-])CC3)c(F)cc2c1=O [Example 17] | 250 |  |  | 
29 | 0.07 (≈ 0.147 µM) | O=C(O)c1cn(C2CC2)c2c(OC(F)F)c(N3CCN(c4ncccn4)CC3)c(F)cc2c1=O [Example 18, 1-cyclopropyl-6-fluoro-8-difluoromethoxy-7-[4-(2-pyrimidinyl)piperazin-1-yl]-1,4-dihydro-4-oxoquinoline-3-carboxylic acid] | 121 |  |  | 
30 | 0.03 (≈ 0.0634 µM) | O=C(O)c1cn(C2CC2)c2c(OC(F)F)c(N3CCN(c4ccccc4)CC3)c(F)cc2c1=O [Example 2, 1-cyclopropyl-6-fluoro-8-difluoromethoxy-7-(4-phenylpiperazin-1-yl)-1,4-dihydro-4-oxoquinoline-3-carboxylic acid] | 100 |  |  | 
31 | 0.01 (≈ 0.0203 µM) | CCn1cc(C(=O)O)c(=O)c2cc(F)c(N3CCN(c4ccccc4OC)CC3)c(OC(F)F)c21 [Example 63, 1-ethyl-6-fluoro-8-difluoromethoxy-7-[4-(2-methoxyphenyl)piperazin-1-yl]-1,4-dihydro-4-oxoquinoline-3carboxylic acid] | 1000 |  |  | 
32 | 0.015 | COc1ccccc1N1CCN(c2c(F)cc3c(=O)c(C(=O)O)cn(C4CC4)c3c2OC(F)F)CC1 [Example 1, 1-cyclopropyl-6-fluoro-8-difluoromethoxy-7-[4-(2-methoxyphenyl)piperazin-1-yl]-1,4-dihydro-4-oxoquinoline-3-carboxylic acid.hydrochloride] | 400 |  |  | 
33 | 0.1 (≈ 0.199 µM) | COc1ccc(N2CCN(c3c(F)cc4c(=O)c(C(=O)O)cn(C5CC5)c4c3OC(F)F)CC2)cc1 [Example 8, 1-cyclopropyl-6-fluoro-8-difluoromethoxy-7-[4-(4-methoxyphenyl)piperazin-1-yl]-1,4-dihydro-4-oxoquinoline-3carboxylic acid] | 500 |  |  | 
